Like-named read-outs stand apart in the source and are kept apart here.
Key:
[1] = tested on: HCT-116 human colon cancer cell line; test: Cell viability testing of HCT-116 cells (Cell Counting Kit-8, WST-8 reagent); type: cell-based; conditions: for IC50: Homo sapiens
Method: Cell culture: The HCT-116 human colon cancer cell line was acquired from the American Type Culture Collection (Manassas, VA, USA). The cells were grown in Dulbecco's […] medium (DMEM) with 10% fetal bovine serum and 100 IU/ml of penicillin/streptomycin.
Cell viability testing: HCT-116 cells were cultivated at subconfluence overnight in Dulbecco's modified Eagle's medium in 96-well plates (1.0×10^3 cells per well). The following day, HCT-116 cells were treated with concentrations of rMETase ranging from 0.125 to 8 U/ml or regorafenib ranging from 0.25 μM to 16 μM. Regorafenib was purchased from MedChemExpress (Monmouth Junction, NJ, USA). After 72 h of treatment, cell viability was assessed using the Cell Counting Kit-8 (Dojindo Laboratory, Kumamoto, Japan) with the WST-8 reagent.
ImageJ version 1.53 (National Institutes of Health, Bethesda, MD, USA) was applied to calculate IC50 values and sensitivity curves. After calculating the half-maximal inhibitory concentration (IC50) for rMETase and regorafenib, the […]. concentrations of both drugs were used to determine the synergistic efficacy of the combination of the drugs. Finally, the IC50 study was repeated for regorafenib on HCT-116 cells treated in combination with the IC50 concentration of rMETase to examine whether methionine restriction increased the efficacy of regorafenib. Each experiment was carried out in triplicate.
Statistics: GraphPad Prism 9.4.0 (GraphPad Software, Inc., San Diego, CA, USA) was used to conduct all statistical analyses. Tukey's multiple comparison test was performed for the parametric test of comparison between groups. All data are presented as the mean and standard deviation. The significance level was p≤0.05.

[2] = tested on: human colorectal cancer cell line; conditions: in vitro; cited from earlier work
[3] = patients; oral regorafenib; cited from earlier work

Row | Molecule | IC50 ([1]; HCT-116, 72 h, addition of rMETase at 0.61 U/ml (its IC50), 72 h, WST-8, read-out: IC50 of regorafenib in combination with rMETase) | IC50 ([1]; HCT-116, 72 h, regorafenib alone, 72 h treatment, WST-8, read-out: IC50 of regorafenib on HCT-116 cells) | IC50 ([1]; HCT-116, regorafenib alone, read-out: IC50 of regorafenib alone on HCT-116 cells (printed in U/ml)) | Increase of intracellular S-adenosyl-L-methionine (SAM) level compared to the control [2] | Time to appearance of toxicity after the start of treatment (severe skin rash, diarrhea, hypertension, fatigue) [3] | IC50 of rMETase on HCT-116 cells ([1]; rMETase alone, 72 h treatment, WST-8)
1 | CNC(=O)c1cc(Oc2ccc(NC(=O)Nc3ccc(Cl)c(C(F)(F)F)c3)c(F)c2)ccn1 [regorafenib, 4-[4-[[4-chloro-3-(trifluoromethyl)phenyl]carbamoylamino]-3-fluorophenoxy]-N-methylpyridine-2-carboxamide] | 1.46 µM | 2.2 µM | 2.26 µM | 34.5% | 3 to 4 days | 
2 | rMETase: recombinant methioninase produced by fermentation of recombinant Escherichia coli transformed with the methioninase gene from Pseudomonas putida |  |  |  |  |  | 0.61 U/ml
